Legend:
[1] = carbonyl-quenching activity towards HNE in vitro (residual HNE by reverse-phase chromatography); type: biochemical; conditions: HNE 50 μM, compound 1 mM, phosphate buffer 10 mM, pH 7.4, 37° C.; percentage of HNE reacted after one, two and three hours
Experimental: The pharmacological activity of the compounds according to the invention was determined in vitro by evaluating their carbonyl-quenching activity towards 4-hydroxy nonenal ([…]), which is known for its involvement in numerous disorders.
The activity was evaluated one, two and three hours after incubation, determining the residual HNE content by reverse-phase chromatography as previously described by Aldini G. et al. [Biochem Biophys Res Commun. 2002 Nov. 15; 298(5):699-706]. The carbonyl-quenching activity is evaluated on the basis of the percentage of HNE reacted, compared with the HNE content in the absence of the molecule to be tested.

rat = test: preliminary toxicological study in the rat; type: in vivo

## NCCC(=O)N[C@H](CO)Cc1cnc[nH]1 [3-Amino-N-[(1S)-2-hydroxy-1-(1H-imidazol-5-yl-methyl)-ethyl]propanamide]
[1]
  carbonyl-quenching activity relative to β-alanyl histidine (standard substance): 1.66 times
rat; IV, 3 consecutive doses 3, 10 and 30 mg/kg
  toxic effects: no toxic effects were observed
rat; intraperitoneal, single dose 100 mg/kg
  toxic effects: no toxic effects were observed
rat; per os (gavage), 100 mg/kg/day for 7 days
  toxic effects: no toxic effects were observed
